Results taken from patent publication US20240166596A1, “SULFAMOYL BENZENE DERIVATIVES AND USES THEREOF” (AphioTx Inc., priority 2021, published 2024).
Entries after “also recorded” stand apart in the source; their conditions may differ.

How the values were obtained:
[1] = system: Long Evans rats; test: Morphine self-administration, extinction and cue-induced reinstatement (opioid seeking); type: in vivo
Description: Adult (8 to 10 weeks old at the beginning of the experiments) wild-type male and female Long Evans rats (250-350g) were used. Animals were group housed prior to jugular vein catheter implant surgery with two to three animals per cage on a 12/12 hours dark/light cycle (lights on at 7:00 AM). Rats were acclimated to the animal facility holding rooms for at least 7 days before any manipulation. After catheter implantation, animals were single housed to prevent damage to the harnesses. All experiments were performed during the light cycle. Rats received food and water ad libitum until 2 days prior to starting the behavioral studies, when food restriction (16 g of rat chow per day) started and continued until the end of the experiments.
All surgeries were performed under isoflurane (2.5/3 MAC) anesthesia using sterile aseptic techniques. For intravenous (IV) self-administration (SA), animals were implanted with sterile catheters in the right jugular vein and connected to a harness placed over the torso. The harness allowed for minimal stress while connecting and disconnecting the animal from infusion lines. The catheter was kept patent by daily infusions of gentamicin mixture (1.33 mg/ml).
Equipment: Rat self-administration was conducted using operant-conditioning chambers (Med Associates) equipped with two retractable levers with a food magazine connected to a food pellet dispenser between them. Two cue lights were positioned above the levers, and one house light was positioned on the top left-hand wall. During self-administration sessions both levers (correct and incorrect lever) were extended out with white cue light turned on only above the correct lever. […]
All experiments were performed at least twice, including each treatment condition to prevent an unspecific day/condition effect. […] All data are expressed as mean±SEM. […] After assessing the normality of sample data using Shapiro-Wilk test, statistical significance was determined by two-way repeated-measures ANOVA followed by two-tailed Sidak post hoc test. Data was analyzed using GraphPad Prism 8.1.0.

[2] = system: C57BL/6 mice; test: Conditioned place aversion (CPA) after naloxone-precipitated withdrawal; type: in vivo; conditions: for CPA: 0.1 mg/kg i.p. as printed
Description: Adult male C57BL/6 mice (7-14 weeks old) were used for conditioned place aversion experiments (CPA). Animals were group housed under reverse light-dark cycle with ad libitum access to food and water and were randomly allocated to different test groups. All procedures were approved by the University of Calgary and Washington University Animal Care Committees and are in accordance with the guidelines of the Canadian Council on Animal Care and the US National Institutes of Health Guide for the Care of Use of Laboratory Animals.
Place conditioning was performed in a custom-built clear plexiglass apparatus (28×28×19 cm) divided into two conditioning chambers distinct in tactile and visual cues. All locomotor behaviours were recorded using monochrome GigE cameras and quantified offline using EthoVision XT 11 software (Noldus). The CPA score was calculated by subtracting time spent in the conditioned chamber during baseline (pre-test) from time spent in the same chamber postconditioning. Mice were placed in a two-chamber conditioning apparatus and allowed free access to both chambers for 15 min to assess baseline preference. Mice were treated with escalating doses of morphine, control animals received equivalent volumes of 0.9% sterile saline. Two hours after the final morphine or saline injection on day 5, mice were injected with naloxone and confined to one side of the conditioning apparatus for 30 min. The conditioned place aversion (CPA) test occurred 1 and 7 days post-conditioning, where mice were allowed free access to the conditioning apparatus for 15 min. […]
Unpaired t tests were applied to compare differences between two groups, one-way ANOVA with Bonferroni post hoc tests were applied to compare differences between three or more groups. […] All data are expressed as mean±SEM. […] After assessing the normality of sample data using Shapiro-Wilk test, statistical significance was determined by two-way repeated-measures ANOVA followed by two-tailed Sidak post hoc test. All data were presented as mean±SEM and analyzed using GraphPad Prism 9 (GraphPad Software, Inc., California).

Q: For CCCN(CCC)S(=O)(=O)c1ccc(C(O)(C(F)(F)F)C(F)(F)F)cc1 [Compound 1, 4-(1,1,1,3,3,3-hexafluoro-2-hydroxypropan-2-yl)-N,N-dipropylbenzenesulfonamide], which “Extinction of morphine seeking behaviour (lever pressing)” value ([1]; 0.5 mg/kg i.p. 1 hour prior to each extinction session, vs saline) is on record?
A: did not show a reduction in time required for extinction; also recorded: no difference was observed

Q: And the “Lever presses (morphine seeking) during reinstatement, all animals” value ([1]; 0.5 mg/kg i.p. during extinction, before reinstatement, or both, vs saline)?
A: significant reduction in the number of lever presses; also recorded: rescued

Q: And the “Lever presses (morphine seeking) during reinstatement, female rats” value ([1]; 0.5 mg/kg i.p. during extinction, first day of reinstatement, or both, females)?
A: decreased the number of lever presses; also recorded: reversed

Q: What about the CPA ([2]; 1 day after naloxone-precipitated withdrawal) of the same molecule?
A: significantly less CPA

Q: What about the CPA ([2]; 1 day and 7 days after naloxone-precipitated withdrawal) of the same molecule?
A: significantly less CPA

Q: What about the “CPA score (aversion to the naloxone-paired chamber)” value ([2]; 0.5 mg/kg i.p., morphine-dependent mice, vs vehicle) of the same molecule?
A: significant reduction in aversion
